Reference: patent publication US20240109855A1, “ANTI-QUORUM SENSING, ANTI-BIOFILM, AND INFLAMMATION ATTENUATING COMPOUNDS, COMPOSITIONS, AND METHODS OF USING SAME” (priority 2021, published 2024)

System: NF-kB
Experiment: NF-kB-luciferase reporter gene assay in L428 cells; further: key: +: active; −: inactive
Type: cell-based, human
Conditions: Table 6 summary
Summary of the method: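 L428 cells stably carrying NF-kB-luciferase reporter (5×10^5/well, triplicate) exposed 2 h to compounds or DMSO. Lysate luminescence normalized to Bradford protein and to vehicle, reported as % NF-kB activation; mean+SD, ≥3 repeats.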

## COc1cc(/C=C/C(=O)N2CCC=CC2=O)cc(O)c1O [PL-18, Dihydroxy piperlongumine]
  Anti-inflammatory: +
